Assay results published in PMC9485262, “Structural characterization of a soil viral auxiliary metabolic gene product – a functional chitosanase” (Nature Communications, 2022).

How the values were obtained:
V-Csn = molecular target: T1, V-Csn (uncultured phage, UniProt Z9RE59BL32); assay: X-ray crystal structure of co-crystal, […] A; assay type: binding; conditions: co-crystallised with about 5 mM chitohexaose, 0.2 M ammonium sulfate, 0.1 M sodium acetate pH 4.6, 30% MMePEG2000; active-site cleft; three of six GlcN residues modelled
T1 construct: model residues 1-224 plus linker GHS; dimer in solution

[1] = molecular target: V-Csn (Viral Chitosanase), soil viral GH75 chitosanase AMG product (soil virus (predicted Proteobacteria phage; forest soil metagenome)); assay: SEC; size exclusion chromatography of purified V-Csn in solution; conditions of this observation are not given (gel filtration in the purification used a Superdex HiLoad 26/60 column)

N[C@H]1[C@H](O[C@H]2[C@H](O)[C@@H](N)[C@H](O[C@H]3[C@H](O)[C@@H](N)[C@H](O[C@H]4[C@H](O)[C@@H](N)[C@H](O[C@H]5[C@H](O)[C@@H](N)[C@H](O[C@H]6[C@H](O)[C@@H](N)C(O)O[C@@H]6CO)O[C@@H]5CO)O[C@@H]4CO)O[C@@H]3CO)O[C@@H]2CO)O[C@H](CO)[C@@H](O)[C@@H]1O (some centres unmarked) [chitohexaose]
X-ray crystal structure of co-crystal, 1.30 A (V-Csn): gave a complex with the E157Q mutant only

V-Csn (Viral Chitosanase), soil viral GH75 chitosanase AMG product (enzyme)
stoichiometry N [1]: 2
